# Literature values as cited in patent publication US20140221306A1 (Santen Pharmaceutical Co. Ltd, priority 2010, published 2014).
# Legend:
# [1] = disclosed in Japanese Patent No. 3652707 (PTD 1)
# dry eye patients = conditions: instillation of an ophthalmic solution; Cornea, 23(8), 784-792 (2004)
Structure (SMILES),effect on secretion of tears [1],corneal epithelium disorder of dry eye patients (dry eye patients)
"O=c1ccn([C@@H]2O[C@H](COP(=O)(O)OP(=O)(O)OP(=O)(O)OP(=O)(O)OC[C@H]3O[C@@H](n4ccc(=O)[nH]c4=O)C(O)C3O)C(O)C2O)c(=O)[nH]1 (some centres unmarked) [Diquafosol, P^1,P^4-di(uridine-5′)tetraphosphate]",effect of stimulating secretion of tears,
O=c1ccn([C@@H]2O[C@H](COP(=O)([O-])OP(=O)([O-])OP(=O)([O-])OP(=O)([O-])OC[C@H]3O[C@@H](n4ccc(=O)[nH]c4=O)[C@H](O)[C@@H]3O)[C@@H](O)[C@H]2O)c(=O)[nH]1.[Na+].[Na+].[Na+].[Na+] [diquafosol tetrasodium salt],,improved corneal epithelium disorder
